According to US9669060B2, “Compositions for preventing and treating uterine disease” (CORNELL UNIVERSITY, priority 2009, dated 2017):
Converted amounts (≈) assume the structure as drawn. Like-named read-outs stand apart in the source and are kept apart here.

What was measured:
[1] = test system: Escherichia coli recovered from uterine secretion from Holstein dairy cows (n = 80 isolates); test: Antimicrobial susceptibility assay, MIC by broth microdilution (CLSI); type: cell-based; details: for MIC50 / MIC90: Escherichia coli, 18 hours at 37° C.; for MIC50: MIC that inhibits at least 50% of isolates; for MIC90: MIC that inhibits at least 90% of isolates
Experimental: The MIC determinations were performed by broth microdilution method as described by the Clinical and Laboratory Standards Institute (CLSI, 2008) recommendations. […] The dilutions for each antimicrobial tested ranged from 0.25 μg/ml to 256 μg/ml for all the antibiotics and all tests were performed in duplicates. The cultures were diluted in Mueller-Hinton broth to 10^5 CFU/ml and an aliquot of 200 μl of the diluted culture was added to microtiter plate wells, containing various concentrations of the antimicrobials, to a total volume of 300 μl per well. The assays were carried out in duplicates and the required controls of adequacy of the broth to support the growth of the microorganism and the sterility of the broth done.
In addition to the uterine E. coli isolates tested, the reference strain of E. coli ATCC 25922 was included as quality control for MIC determination, as recommended by the CLSI (CLSI, 2008). The MIC that inhibits at least 50% (MIC50) and at least 90% (MIC90) of the isolates, as well as the minimum and maximum MIC, were also derived.

[2] = test system: Escherichia coli isolated from the uterus of postpartum Holstein dairy cows (57 isolates); test: Kinetic (spectrophotometric) MIC and growth curve test with antimicrobials; type: cell-based; details: for MIC: Escherichia coli, minimum concentration that completely inhibited growth for 2-3 hours after beginning of stationary phase of control, estimated from graphics, read-out: Mean MICs; for Mean OD600: growth curve during 10 hours at 37° C., Mueller-Hinton broth
Description: Growth was periodically assessed spectrophotometrically in a microplate reader (Synergy™ 2, BioTek) at 600 nm. Curves were plotted with average of the duplicates. The results of this kinetic test were statistically analyzed to derive the mean MIC (mMIC) of the isolates for each antimicrobial tested.
A general linear mixed model was used to analyze the effect of the different antibiotic concentrations and bacteriophage MOIs on the growth curve of 57 E. coli isolates and determinate the mean values. The outcome variable was the OD600 of the Mueller-Hinton (BBL™) broth culture, which was modeled as a Gaussian (normally distributed data) variable. The assumption that the residuals were normally distributed was satisfied by visually evaluating the distribution plot of the studentized residuals. The independent variables offered to the model were: treatment (bacteriophage cocktail and all antimicrobials tested) and time (from 1 until 10). The interaction of treatment and time was also included in the model. […] This implies that data points were correlated within each E. coli isolate. To account appropriately for within correlation of the optical density, we modeled the error term by imposing a first-order autoregressive covariance structure. Variables and interaction were considered significant when their P-values<0.05.

E. coli from calves = details: cited from earlier work
uropathogenic E. coli = details: fimH immunization, murine model (Langermann et al., 1997); cited from earlier work

| Compound | isolates resistant (CLSI criteria) [1] | MIC50 [1] [µg/mL] | MIC90 [1] [µg/mL] | MIC [2] [µg/mL] | Mean OD600 [2] | occurrence of ampicillin-resistant E. coli (E. coli from calves; feces of healthy lactating dairy calves (Sawant et al., 2007)) [%] | isolates susceptible [1] [%] | prevalence rate of ceftiofur-resistant E. coli (E. coli from calves; Bradford et al., 1999) [%] | prevalence rate of ceftiofur-resistant E. coli (E. coli from calves; Sawant et al., 2007) [%] | occurrence of ceftiofur-resistant E. coli (E. coli from calves; diarrheic calves (White et al.)) [%] | E. coli isolates resistant to both florfenicol and chloramphenicol (E. coli from calves; diarrheic dairy calves (White et al., 2000)) [%] | prevention of in vivo colonization of the bladder mucosa (uropathogenic E. coli) [%] |
| --- | --- | --- | --- | --- | --- | --- | --- | --- | --- | --- | --- | --- |
| CC1(C)S[C@@H]2[C@H](NC(=O)[C@H](N)c3ccccc3)C(=O)N2[C@H]1C(=O)O [Ampicillin, ampicillin] | 33.7% | 16 (≈ 45.8 µM) | 32 (≈ 91.6 µM) | 16 | 0.14 | 48 | – | – | – | – | – | – |
| CO/N=C(\C(=O)N[C@@H]1C(=O)N2C(C(=O)O)=C(CSC(=O)c3ccco3)CS[C@H]12)c1csc(N)n1 [Ceftiofur, ceftiofur] | 1.2% | 1 (≈ 1.91 µM) | 1 (≈ 1.91 µM) | 16 | 0.05 | – | 98.7 | 11 | 13 | 69 | – | – |
| O=C(N[C@H](CO)[C@H](O)c1ccc([N+](=O)[O-])cc1)C(Cl)Cl [Chloramphenicol, chloramphenicol] | 100% | 64 (≈ 198 µM) | 128 (≈ 396 µM) | 128 | 0.18 | – | – | – | – | – | – | – |
| CS(=O)(=O)c1ccc([C@@H](O)[C@@H](CF)NC(=O)C(Cl)Cl)cc1 [Florfenicol, florfenicol] | 100% | 16 (≈ 44.7 µM) | 16 (≈ 44.7 µM) | 16 | 0.10 | – | – | – | – | – | 85 | – |
| CN[C@@H]1[C@H](O)[C@H](NC)[C@H]2O[C@@]3(O)C(=O)C[C@@H](C)O[C@H]3O[C@@H]2[C@H]1O [Spectinomycin, spectinomycin] | none of them were resistant | 32 (≈ 96.3 µM) | 64 (≈ 193 µM) | 32 | 0.17 | – | – | – | – | – | – | – |
| [H]/N=C(/N)N[C@H]1[C@H](O)[C@@H](O)[C@H](O[C@@H]2O[C@@H](C)[C@](O)(C=O)[C@H]2O[C@@H]2O[C@@H](CO)[C@H](O)[C@@H](O)[C@@H]2NC)[C@@H](N/C(N)=N\[H])[C@@H]1O [Streptomycin, streptomycin] | none of them were resistant | 8 (≈ 13.8 µM) | 8 (≈ 13.8 µM) | 8 | 0.11 | – | – | – | – | – | – | – |
| CN(C)[C@@H]1C(O)=C(C(N)=O)C(=O)[C@@]2(O)C(O)=C3C(=O)c4c(O)cccc4[C@@](C)(O)[C@H]3C[C@@H]12 [Tetracycline, tetracycline] | – | 1 (≈ 2.25 µM) | 2 (≈ 4.5 µM) | 2 | 0.05 | – | – | – | – | – | – | – |
| fimH: fimH adhesin of type 1 pili used for immunization in a murine model (Langermann et al., 1997) | – | – | – | – | – | – | – | – | – | – | – | 99 |
